Source: patent US20040077080A1, “Compositions and methods for induction of proteins involved in xenobiotic metabolism” (priority 2000, published 2004)
Entries after “also recorded” stand apart in the source; their conditions may differ.

Legend:
[1] = test system: human CYP1A1 promoter (Ah receptor); assay: 101L cell luciferase assay (HepG2 with human CYP1A1 promoter-luciferase), 96-well; details: 101L cells; for fold increase in luciferase activity, dose response of known CYP1A1 inducers: benzanthracene and omeprazole maximum at 100 micromolar, TCDD at 2 nanomolar
Description: Cells were initially seeded in flasks containing media without G418. After an overnight incubation the cultures were changed into media containing G418 for antibiotic selection. After three to five days, cells were removed from flasks by trypsinization and replated on either a twenty-four-well plate at a density of 3.5×10^5 cells per well, or a ninety-six-well plate at a density of 7.5×10^4 cells per well, in DMEM media that was replaced with that containing 0.1% FBS and without G418 or indicator (phenol red). The next day, media containing 0.1% FBS and G418 was added to the cultures. […] For the antagonist experiments, cells were co-treated with a flavonoid and two nanomolar TCDD. All inducers were dissolved in DMSO and this reagent was added to control cells at 0.1%. The cells were treated with varous doses and times (six to eighteen hours). After treatment, the media containing the compound was removed by aspiration and replaced with one-hundred microliters per well of DMEM for direct analysis of luciferase activity. Experiments were performed on 101L cells from frozen stocks on the initial derivation and the passage number was limited to thirty.
Luciferase assays were performed as specified by the manufacturer (LucLite system, Packard Instrument, Meriden, Conn.). Activity was determined using a Packard LumiCount luminometer and results expressed as relative light units or fold increase above control (DMSO treated cells.

[2] = test system: AhR (dioxin response elements); assay: in vitro; details: human, fold induction of luciferase activity above DMSO, DRE12-6 cells, 28 hours; TCDD 10 nanomoles per liter, omeprazole 25, 2-AAF 100, DMBA 20 micromoles per liter
Description: (§2) FIG. 25A: DRE12-6 cells were treated for 28 hours with the indicated concentrations of phytochemicals. FIG. 25B: DRE12-6 cells were treated with the indicated chemicals for 3 hours prior to co-treatment with 2,3,7,8-tetrachlorodibenzo-p-dioxin (TCDD) for 28 hours.
(§3) Chemical treatment was followed by cell lysis and luciferase measurement.
(§4) FIG. 26A: DRE12-6 cells were inoculated into a 96-well plate (2×10^4 cells per well) a day prior to treatment and treated for 28 hours with the indicated concentrations of the environmental contaminants (PAHs, PAH derivatives, PCBs, or pesticide derivatives). FIG. 26B: DRE12-6 cells were treated with the indicated chemicals for 3 hours prior to co-treatment with 2,3,7,8-tetrachlorodibenzo-p-dioxin (TCDD) for 28 hours.
(§5) The luciferase-SV40 promoter vector, with the three copies of the dioxin response elements, was transfected into HepG2 cells, which were put under neomycin selection to yield the stable cell line DRE12-6, for detection of AhR-dependent transactivation.
(§6) Luciferase assay: Luciferase assays using the LucLite system (Packard Instrument Co., Meriden, Conn.) were performed according to the manufacturer's instructions. Results were expressed as relative light units or fold induction, relative to DMSO-treated control cells. The data represent the mean±standard deviation of experiments performed in duplicate.

CYP1A1 mRNA [3] = assay: Northern blot of CYP1A1 mRNA in primary cultures of human hepatocytes (Example II); details: primary human hepatocytes
Description: Six well plates containing human hepatocytes were obtained from the Liver Tissue Procurement and Distribution System (LTPADS, University of Minnesota, Minneapolis, Minn.). […] All inducers were dissolved in DMSO and added to media at a 0.1% final concentration of this reagent. After treatment, media was removed and cells harvested for RNA isolation.
(§1) Total RNA from hepatocytes or HepG2 cells was isolated using Trizol™ reagent (Gibco BRL Products, Gaithersburg, Md.) and quantified by measuring absorbance at 260 nm; purity was assessed by determining the 260/280 nm ratio. […] A cDNA probe for human 18S RNA probe (Ambion, Austin Tex.) was used to normalize the amount of RNA loaded in each lane. […] Autoradiographs of Northern blots were quantified by densitometry using a Model GS-670 Imaging Densitometer equipped with Molecular Analysis/Mac version 1.1.1. Image Analysis software (BioRad laboratories, Hercules, Calif.) or by scaning autoradiograms with a ScanMaker II (Microtek) and digitized with Un-Scan-It software (Silk Scientific, Orem Utah). Exposure times used were in the linear range of the film, Kodak XAR-5.

CYP3A4 enhancer (PXRE) = assay: Luciferase reporter assay, HepG2 cells stably transformed with CYP3A4 enhancer (colony 13); details: 72 hours, omeprazole 100, clotrimazole 10, RU486 10, PCN 50, TCDD 1 micromolar
Description: (§7) HepG2 cells were harvested at approximately 50% confluency and seeded in six well dishes at 5×10^5 cells per well in DMEM containing 10% fetal bovine serum (FBS). […] The control cells were those that received plasmid DNA containing pGL3 promoter and pIRES(neo) or pGL3promoter and hPXR in pIRES(neo). After sixteen hours of exposure to the precipitated DNA, the culture medium was removed, cells washed twice with DMEM, and fresh media containing 10% FBS added. After an additional twenty four hours, media was replaced with that containing 400 micrograms per milliliter of G418. Media was changed every two days for three weeks until small colonies were visible. Single colonies were selected and transferred to twenty four well Costar plates (VWR, Westchester, Pa.). Each of the twenty four wells contained the same media and cells were grown to confluency with media changes every three days. Confluent wells were trypsinized and cells transferred into six well plates and upon reaching confluency therein, cells were further transferred to T75 flasks.
(§8) Luciferase assays were performed as specified by the manufacture (LucLite system, Packard Instrument, Meriden, Conn.). Activity was determined using the Packard LumniCount luminometer and results expressed as relative light units or fold increase above control (DMSO treated cells).
(§9) Cells were seeded in T75 flasks and grown to confluency. […]

hPXR / CYP3A4 enhancer = details: colony 1F; 72 hours; omeprazole 100 micromolar, PCN 50 micromolar, TCDD 1 micromolar
Description: as §7, §8, §9

CYP1A1 mRNA [4] = assay: Northern blot of CYP1A1 in primary human hepatocytes (Example V)
Text: The isolated RNA was subjected to Northern blot analysis.

[5] = test system: AhR (dioxin response elements); assay: DRE12-6 luciferase assay (HepG2 with dioxin response elements); details: DRE12-6 cells, 28 hours
Description: as §2, §3, §4, §5, §6

CYP1A1 mRNA [6] = assay: Northern blot of CYP1A1 mRNA in HepG2 cells; details: HepG2 cells; mean of two determinations
Description: HepG2 cells were obtained from American Type Culture Collection (ATCC). Cells were grown in DMEM (Gibco/BRL). Twenty-four hours after cells were plated and grown to confluency, they were treated with one of the bioflavonoids, TCDD, or beta-naphthoflavone (Sigma). All inducers were dissolved in DMSO and this solvent was added to control cells at 0.1%.
as §1

CYP2C19 (hCAR) = assay: CYP2C19 induction in HepG2 cell lines stably transfected with hCAR
CYP3A4 mRNA [7] = details: human, hepatocytes
Description: FIG. 28B: Human primary hepatocytes were exposed for 48 hours to commercial health supplements including grapeseed, garlic, kava-kava, and ginseng.
Total RNA was prepared from the treated cells, subjected to electrophoresis on a 1% formaldehyde gel, and transferred onto a nylon membrane.

CYP3A4 mRNA [8] = details: human, hepatocytes; remark: listed apart in the source
Description: FIG. 13 depicts the effect of various CYP3A4 inducers on CYP3A4 expression in human hepatocytes. […] Total RNA (ten micrograms) was subjected to northern blot analysis and developed with a specific cDNA probe to CYP3A4 as described in the Examples.
Human hepatocytes were treated with various CYP3A4 inducers for forty eight hours, harvested, and RNA and cell homogenates isolated.

[9] = test system: PXR / CYP3A4 response elements; assay: DPX2 (Hepg-hPXR/3A4-Luc) luciferase assay; details: DPX2 cells, kava-kava 100 micrograms per milliliter, chrysin 25 micromoles per liter
Description: Compounds tested included known PXR ligands and conventional drugs (FIG. 30A), environmental contaminants (FIG. 30B), and herbal supplements (FIG. 30C). DPX2 cells were cultured with DMEM supplemented with 10% fetal bovine serum and neomycin. Cells were inoculated into 96-well plate at a density of 1×10^4 cells per well the day before treatment.
2. […] In addition, a distal enhancer module, XREM, was amplified by PCR using the sense primer
The resulting amplified XREM fragment was ligated upstream of PXRE containing a 3A4 promoter, into a luciferase vector.
A neomycin resistance gene was generated by PCR amplification using the pcDNA3.1 plasmid (Invitrogen, Carlsbad, Calif.), which encodes a neomycin resistant gene, as a DNA template. The sense primer had the sequence […] Amplification was followed by SalI digestion of the PCR product, and the resulting fragment ligated to the SalI-digested PGL3-promoter plasmid, which contains luciferase as a reporter gene. […] The CYP3A4 cell line DPX2 (Hepg-hPXR/3A4-Luc) was established by double transfection with the PXR expression plasmid and the luciferase plasmid containing CYP3A4 PXR response element under selection with both neomycin and hygromycin.

[10] = test system: PXR / mdr1(dr4) response element; assay: Hep-PXR/Pgp-Luc stable cell luciferase assay; details: Hep-PXR/PgpLuc cells, 48 hours; omeprazole 100 micromoles per liter versus rifampicin 10 micromoles per liter
Description: FIG. 35 depicts dose-response behavior to various PXR activators in stable cell lines overexpressing PXR and harboring DR4 response element. FIG. 35A: Results are shown for the stable cell line Hep-PXR/PgpLuc. FIG. 35B: Results are shown for the stable cell line Caco-PXR/PgpLuc.
Cells were exposed to the test compounds for 48 hours at the concentrations indicated.
FIG. 36 depicts the effect of environmental and botanical chemicals on luciferase activity in the stable cell line Hep-PXR/PgpLuc. Cells were inoculated into 96-well plates at a density of 2×10^4 cells per well. After overnight recovery, cells were treated with the test compounds at the concentrations indicated for 48 hours.
Establishment of stable transformants containing both PXR and reporter plasmid and development of high throughput bioassay for PXR-dependent transactivation: The stable transformants Hep-PXR/mdr1(dr4)-Luc and Caco-PXR/mdr1(dr4)-Luc cell lines were generated from the parental cell lines HepG-PXR and Caco-PXR, respectively, according to the following procedure. The parental cell lines HepG-PXR and Caco-PXR, which overexpress PXR, were stably transfected with the luciferase reporter plasmid mdr1(dr4)-Luc. The transfected cells were cultured in DMEM (HepG-PXR cells) or in IMEM (Caco-PXR cells), both media supplemented with 10% fetal bovine serum and neomycin (700 micrograms per milliliter).
For the induction assay, stable transformants were seeded in 96-wells plates at a density of 1×10^4 cells per well and allowed to recover overnight. Plates were treated with test compounds at varying concentrations, using 3 replicates per dose. After 48 hours of exposure to the test compound, cells were washed with phosphate buffered saline, lysis buffer was applied to the wells, and luciferase substrate added. Following 10 minutes for light adaptation, luminescence was monitored according to the manufacturer's instructions (Packard kit, Biomed).

[11] = test system: T1, CAR (hCAR) (Homo sapiens), Q14994-2; assay: cell_activity; details: Caco-2 luciferase, fold above no receptor
T1 sequence: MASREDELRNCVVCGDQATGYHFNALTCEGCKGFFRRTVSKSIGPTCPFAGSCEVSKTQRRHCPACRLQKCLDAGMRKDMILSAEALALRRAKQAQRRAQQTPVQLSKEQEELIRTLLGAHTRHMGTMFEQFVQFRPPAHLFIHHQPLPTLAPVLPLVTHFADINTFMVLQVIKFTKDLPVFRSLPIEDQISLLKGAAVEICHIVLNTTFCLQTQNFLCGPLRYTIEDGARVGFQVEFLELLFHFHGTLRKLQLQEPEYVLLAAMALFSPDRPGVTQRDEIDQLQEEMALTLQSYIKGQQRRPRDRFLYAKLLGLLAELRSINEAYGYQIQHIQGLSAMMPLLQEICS

[12] = target: CAR/RXR heterodimer (hCAR/hRXRa) (Homo sapiens, UniProt Q14994-2;P19793 Q14994-2:1-348,P19793:1-462); assay: EMSA; details: tags: TNT coupled transcription/translation (Promega); label: 32P
[13] = primary hepatocytes, 24 hours, TCDD 10 nanomoles per liter, 3-MC 0.5 nanomoles per liter, omeprazole 100, chrysin 25, curcumin 50, resveratrol 25, DMBA 20, 2-AAF 100 micromoles per liter
[14] = TCDD 10 nanomoles per liter, omeprazole 25, 2-AAF 100, DMBA 20 micromoles per liter

Chain of CAR/RXR heterodimer (hCAR/hRXRa) (P19793 whole entry, one chain of several): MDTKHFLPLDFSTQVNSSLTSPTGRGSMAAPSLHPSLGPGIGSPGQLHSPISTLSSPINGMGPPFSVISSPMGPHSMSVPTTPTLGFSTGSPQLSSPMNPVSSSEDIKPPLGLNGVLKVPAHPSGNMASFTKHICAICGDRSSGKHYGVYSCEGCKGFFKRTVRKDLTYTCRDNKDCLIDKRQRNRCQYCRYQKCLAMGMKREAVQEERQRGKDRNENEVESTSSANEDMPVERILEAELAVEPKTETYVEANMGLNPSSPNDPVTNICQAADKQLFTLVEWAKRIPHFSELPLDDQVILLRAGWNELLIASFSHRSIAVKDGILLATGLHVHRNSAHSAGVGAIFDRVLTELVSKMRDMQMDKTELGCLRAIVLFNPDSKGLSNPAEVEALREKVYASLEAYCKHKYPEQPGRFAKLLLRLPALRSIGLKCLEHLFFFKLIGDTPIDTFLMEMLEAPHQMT

c1ccc2cc3c(ccc4ccccc43)cc2c1 [benzanthracene]
maximum CYP1A1 mediated luciferase activity ([1]; 96-well plate format, 50 micromolar benzanthracene): 33 fold | fold increase in luciferase activity, dose response of known CYP1A1 inducers [1]: twelve to thirty-five | fold induction [2]: 28.7 ± 1.65 | CYP1A1 mRNA level Subject A (%), normalized to TCDD induction (CYP1A1 mRNA [3]; 24 hours): 50% | CYP1A1 mRNA level Subject B (%), normalized to TCDD induction (CYP1A1 mRNA [3]; 24 hours): 50% | CYP1A1 mRNA level Subject C (%), normalized to benzanthracene induction (CYP1A1 mRNA [3]; Subject C, 24 hours): 100% | CYP1A1 mRNA level Subject D (%), normalized to TCDD induction (CYP1A1 mRNA [3]; 24 hours): 52% | CYP1A1 mRNA, % of that observed with TCDD, all subjects (CYP1A1 mRNA [3]; 100 micromolar benzanthracene): 50%

Clc1cc2c(cc1Cl)Oc1cc(Cl)c(Cl)cc1O2 [TCDD]
fold increase in luciferase activity above DMSO, single concentrations (FIG. 15) (CYP3A4 enhancer (PXRE)): less than one | fold increase in luciferase activity above DMSO, single concentrations (FIG. 14) (hPXR / CYP3A4 enhancer): less than two | fold increase in luciferase activity, dose response of known CYP1A1 inducers [1]: twelve to thirty-five; also recorded: twenty-two | CYP1A1 induction by Northern blot (in words) (CYP1A1 mRNA [4]; [13]): maximum induction | AhR-mediated luciferase induction (in words) [5]: dose-dependent increase | fold induction of luciferase activity above DMSO [5, 14]: 12.99±0.64 fold | fold induction at 28 h ([5]; human, fold induction of luciferase activity above DMSO, TCDD 10 nanomoles per liter, omeprazole 25, 2-AAF 100, DMBA 20 micromoles per liter): 20 | HepG2 CYP1A1 mRNA (%), normalized to TCDD induction (CYP1A1 mRNA [6]): 100% | CYP1A1 mRNA level Subject A (%), normalized to TCDD induction (CYP1A1 mRNA [3]; 24 hours): 100% | CYP1A1 mRNA level Subject B (%), normalized to TCDD induction (CYP1A1 mRNA [3]; 24 hours): 100% | CYP1A1 mRNA level Subject D (%), normalized to TCDD induction (CYP1A1 mRNA [3]; 24 hours): 100%

CCC1(c2ccccc2)C(=O)NC(=O)NC1=O [phenobarbital]
induction of HepG2 CYP2C19 (in words) (CYP2C19 (hCAR)): induce HepG2 CYP2C19 | CYP3A4 mRNA by Northern blot (in words) (CYP3A4 mRNA [7]): increased CYP3A4 gene expression | fold increase in CYP3A4 mRNA (CYP3A4 mRNA [8]): 3.8 fold

Clc1ccc(-c2nc3sccn3c2C=NOCc2ccc(Cl)c(Cl)c2)cc1 [CITCO, 6-(4-chlorophenyl)imidazo[2,1-b][1,3]thiazole-5-carbaldehyde-O-(3,4-dichlorbenzyl)oxime]
induction of HepG2 CYP2C19 (in words) (CYP2C19 (hCAR)): induce HepG2 CYP2C19

CC(=O)Nc1ccc2c(c1)Cc1ccccc1-2 [2-AAF, 2-acetylaminofluorene]
fold induction of luciferase activity above DMSO ([9]; 48 hours): 24.7 fold | fold induction at 48 h ([9]; human, fold induction of luciferase activity above DMSO): 24.8 | strength of luciferase induction (in words) [10]: strongly induced | CYP1A1 induction by Northern blot (in words) (CYP1A1 mRNA [4]; [13]): increased CYP1A1 expression slightly | fold induction of luciferase activity above DMSO [5, 14]: 10.21±0.36 fold | fold induction of luciferase activity above DMSO ([5]; TCDD 10 nanomoles per liter, omeprazole 25, 2-AAF 100, DMBA 20 micromoles per liter, listed as 2-acetylaminofluorene): 4.8 fold

Cc1ccc2cc3c(ccc4ccccc43)c3c2c1CC3 [3-MC, 3-methylcholanthrene]
CYP1A1 induction by Northern blot (in words) (CYP1A1 mRNA [4]; hepatocytes): maximum induction | AhR-mediated luciferase induction (in words) [5]: dose-dependent increase

CYP2B6 PBREM reporter
activity [11]: 6.16 fold

B1: CYP2C19 F4 fragment (dsDNA)
DNA 1: AACCAAACTCTTCTGACCCCCAATCT
DNA 2: AGATTGGGGGTCAGAAGAGTTTGGTT
binding result [12]: binds
